“Also recorded” adds a separate entry of the source. Where two headings read alike, the source gives them in different places. Where a SMILES comes first, the peptide text is derived from it.

One experiment deals with hT1R2/hT1R3 (Homo sapiens (Human), UniProt Q7RTX0+Q8TE23). The experiment can be described thus: Sweet FLIPR assay, hT1R2/hT1R3-HEK293-Gα15 S-9 cells. The class given is cell-based. Conditions: Table 5 Sweet Enhancer Amides. As for the experimental part: Compounds were initially selected based on their activity on the hT1R2/hT1R3-HEK293-Gα15 cell line (Li, et al. vide supra). Activity was determined using an automated fluorometric imaging assay on a FLIPR instrument (Fluorometric Intensity Plate Reader, Molecular Devices, Sunnyvale, Calif.) (designated FLIPR assay). […] S-9 cells were grown for 24 hours at 37° C. S-9 cells were then loaded with the calcium dye Fluo-3AM (Molecular Probes, Eugene, Oreg.), 4 μM in a phosphate buffered saline (D-PBS) (Invitrogen, Carlsbad, Calif.), for 1 hour at room temperature. After replacement with 25 μl D-PBS, stimulation was performed in the FLIPR instrument and at room temperature by the addition of 25 μl D-PBS supplemented with different stimuli at concentrations corresponding to twice the desired final level.
For dose-responses analysis, stimuli were presented in duplicates at 10 different concentrations ranging from 60 nM to 30 μM. Activities were normalized to the response obtained with 400 mM D-fructose, a concentration that elicits maximum receptor response. Ec50s were determined using a non-linear regression algorithm (using Senomyx, Inc. software), where the Hill slope, bottom asymptotes and top asymptotes were allow to vary.

For experiment [1], the target named is T1, T1R1/T1R3 (Homo sapiens (Human), UniProt Q7RTX0+Q7RTX1). Description: Umami FLIPR assay, HEK-Gα15 clone I-17 inducibly expressing T1R1/T1R3. The conditions noted are these: for EC50: Table 1 Umami Amides. The class given is cell-based. The procedure: A dose-dependent response curve was determined for a compound, and the compound concentration corresponding to 50% of the maximal response was derived from the curve, in one example.
Regarding umami tastants and enhancers, scores of their activities can be given as percentage of the maximum MSG intensity (%). In compound dose response, an EC50 can be calculated to reflect the potency of the compound as umami agonist.
(§1) HEK-Gα15 cells were engineered to inducibly express T1R1/T1R3 using the GeneSwitch system (Invitrogen). pGene-derived zeocin-resistant expression vectors for human T1R1 and T1R3 (plasmid SXV603 for T1R1 and SXV611 for T1R3) and a puromycin-resistant pSwitch-derived vector that carries the GeneSwitch protein (plasmid SXV628) were linearized and cotransfected into the HEK-Gα15 cell line. Zeocin-resistant and puromycin-resistant colonies were selected, expanded, induced with variable amounts of mifepristone, and tested by calcium imaging for responses to umami taste stimuli. […] After replacement with 50 μl PBS, stimulation was performed at room temperature by the addition of 50 μl PBS supplemented with different stimuli. The maximal fluorescence from four independent determinations were averaged, corrected for background fluorescence measured prior to compound addition, and normalized to the response to 0.002 mM ionomycin (CALBIOCHEM).

The target in experiment [2] is T1, T1R1/T1R3. Description: Calcium imaging of HEK-Gα15 cells transiently transfected with human T1R1/T1R3. The format is cell-based.
Experiment [3] deals with T1, T1R1/T1R3. Description: Umami enhancement assay: MSG dose response with and without compound. The class given is cell-based. Conditions: Table 1; compound @ 1 uM. As for the experimental part: In enhancement assay experiments, a MSG dose response was run and a second MSG dose response was run with a certain amount of candidate compound at every MSG concentrations at the same time. Then, the EC50 ratio is calculated based on the following definitions: EC50 Ratio=EC50(MSG)/EC50(MSG+[Compound])
wherein “[compound]” refers to the concentration of compound used to elicit (or enhance or potentiate) the MSG dose response. Those concentrations can vary from a pM to an mM, more preferred, from a low nM to μM.
as §1

The target in experiment [4] is T1, T1R1/T1R3. The experiment can be described thus: FLIPR dose responses of human T1R1/T1R3 stable cell line with modulators. The format is cell-based. Conditions: for effect of control sweeteners on activities of T1R1/T1R3 umami taste receptor: [Steviocide]=0.5 mM, [Saccharin]=1 mM, glutamate and glutamate/IMP dose responses. From the text: (§2) “Detection thresholds” are defined as the lower limit of detectable tastants. The detection threshold values were averaged over four trials for three subjects. […] The activities in B, C, E and F represent the mean±SE of fold increases in fluorescence intensities for four recorded wells. The dose-responses in B, C, E and F were reproduced at least 6 times independently.
Human cell lines that stably co-express human T1R2/T1R3 or human T1R1/T1R3 were generated by transfecting linearized PEAK10-derived (Edge Biosystems) vectors and pcDNA 3.1/ZEO-derived (Invitrogen) vectors respectively containing hT1R1 or hT1R2 expression construct (plasmid SAV2485 for T1R1, SAV2486 for T1R2) and hT1R3 (plasmid SXV550 for T1R3) into a Gα15 expressing cell line. […] Following SAV2485/SXV550 and SAV2486/SXV550 transfections, puromycin-resistant and zeocin-resistant colonies were selected, expanded, and tested by calcium imaging for responses to sweet or umami taste stimuli. Cells were selected in 0.0005 mg/ml puromycin (CALBIOCHEM) and 0.1 mg/ml zeocin (Invitrogen) at 37° C. in low-glucose DMEM supplemented with GlutaMAX, 10% dialyzed FBS, and 0.003 mg/ml blasticidin. Resistant colonies were expanded, and their responses to sweet taste stimuli evaluated by Fluorescence microscopy. For automated fluorimetric imaging on VIPR-II instrumentation (Aurora Biosciences), T1R2/T1R3 stable cells were first seeded onto 96-well plates (approximately 100,000 cells per well).

Experiment [5] relates to endogenous muscarinic acetylcholine receptor. The experiment can be described thus: Endogenous muscarinic acetylcholine receptor response in HEK cells. The class given is cell-based. The conditions noted are these: carbachol.
From the text: as §2

A further experiment concerns the target mT2R5 (Mus musculus (Mouse), UniProt Q9JKT4). Description: Mouse bitter receptor mT2R5 transiently expressed in HEK cells. The class given is cell-based. The text has this:
As was the case for the T1R2/T1R3 receptor, lactisole inhibition of the T1R1/T1R3 response to umami taste stimuli was reversible following washout and restimulation.

Experiment [6] in a line: Human taste detection thresholds in the presence of lactisole. The format is in vivo. The conditions noted are these: millimolar (1 and 2 mM) lactisole, human subjects.
From the text: as §2
The present inventors then evaluated the effect of lactisole on human umami taste.

The next experiment has as its target human sweet receptor (Homo sapiens (Human), UniProt Q7RTX0+Q8TE23). The experiment can be described thus: Dose responses of human sweet receptor with lactisole. The class given is cell-based. Conditions: read-out: EC50 of sweetener. From the text:
Values represent the mean±SE for four independent responses.

For the next experiment, the system named is HEK293-Gα15 cells. Description: FLIPR assay on HEK293-Gα15 cells not expressing the human sweet receptor. The format is cell-based. From the text:
In order to determine the dependency of hT1R2/hT1R3 for the cell response to different stimuli, selected compounds were subjected to a similar analysis on HEK293-Gα15 cells (not expressing the human sweet receptor).

T1 sequence (Q7RTX1 21-841): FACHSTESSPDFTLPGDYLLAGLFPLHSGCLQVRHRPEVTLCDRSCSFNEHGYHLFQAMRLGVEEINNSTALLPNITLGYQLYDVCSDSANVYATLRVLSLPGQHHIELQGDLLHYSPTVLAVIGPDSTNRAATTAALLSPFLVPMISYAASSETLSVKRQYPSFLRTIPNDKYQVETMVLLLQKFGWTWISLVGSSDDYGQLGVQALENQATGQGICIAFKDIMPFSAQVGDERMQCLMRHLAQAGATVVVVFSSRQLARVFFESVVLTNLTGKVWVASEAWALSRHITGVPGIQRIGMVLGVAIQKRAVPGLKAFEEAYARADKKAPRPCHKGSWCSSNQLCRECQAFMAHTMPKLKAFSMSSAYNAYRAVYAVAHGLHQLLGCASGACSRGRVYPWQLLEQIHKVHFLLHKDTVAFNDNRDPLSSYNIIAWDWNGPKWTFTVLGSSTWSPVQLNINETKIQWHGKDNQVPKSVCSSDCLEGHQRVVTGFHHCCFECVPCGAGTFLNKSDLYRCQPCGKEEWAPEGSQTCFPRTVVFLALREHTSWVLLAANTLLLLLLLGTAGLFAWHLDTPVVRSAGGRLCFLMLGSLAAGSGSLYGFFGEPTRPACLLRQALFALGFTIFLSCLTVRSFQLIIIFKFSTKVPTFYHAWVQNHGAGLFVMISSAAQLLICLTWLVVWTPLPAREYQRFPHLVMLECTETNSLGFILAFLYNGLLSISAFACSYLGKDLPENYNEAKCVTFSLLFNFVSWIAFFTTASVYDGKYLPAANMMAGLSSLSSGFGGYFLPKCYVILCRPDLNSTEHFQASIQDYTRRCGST
T1 sequence (Q7RTX0 21-852 C757R): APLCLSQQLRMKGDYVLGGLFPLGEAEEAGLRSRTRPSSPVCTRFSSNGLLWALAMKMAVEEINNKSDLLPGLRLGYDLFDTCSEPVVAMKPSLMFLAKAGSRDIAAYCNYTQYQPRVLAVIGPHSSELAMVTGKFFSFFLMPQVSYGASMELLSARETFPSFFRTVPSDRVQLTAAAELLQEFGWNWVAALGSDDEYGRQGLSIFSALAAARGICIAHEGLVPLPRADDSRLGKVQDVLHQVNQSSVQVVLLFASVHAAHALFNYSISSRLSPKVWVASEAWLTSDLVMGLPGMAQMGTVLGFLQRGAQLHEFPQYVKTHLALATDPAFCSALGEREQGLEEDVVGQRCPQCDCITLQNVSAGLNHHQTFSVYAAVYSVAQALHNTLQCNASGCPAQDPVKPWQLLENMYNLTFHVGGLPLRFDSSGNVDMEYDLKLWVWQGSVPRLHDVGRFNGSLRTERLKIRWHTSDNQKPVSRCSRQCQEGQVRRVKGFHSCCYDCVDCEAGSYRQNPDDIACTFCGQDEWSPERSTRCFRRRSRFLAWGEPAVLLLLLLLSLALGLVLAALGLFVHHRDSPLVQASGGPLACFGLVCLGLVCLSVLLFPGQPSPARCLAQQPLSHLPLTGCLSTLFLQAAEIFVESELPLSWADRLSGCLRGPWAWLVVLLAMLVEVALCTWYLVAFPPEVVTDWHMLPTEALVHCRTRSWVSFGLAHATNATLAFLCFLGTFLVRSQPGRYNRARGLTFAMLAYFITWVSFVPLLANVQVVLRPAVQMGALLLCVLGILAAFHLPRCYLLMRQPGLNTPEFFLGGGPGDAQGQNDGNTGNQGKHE
Chain of human sweet receptor (Q8TE23 other isoform, or with tags, fused parts or gaps): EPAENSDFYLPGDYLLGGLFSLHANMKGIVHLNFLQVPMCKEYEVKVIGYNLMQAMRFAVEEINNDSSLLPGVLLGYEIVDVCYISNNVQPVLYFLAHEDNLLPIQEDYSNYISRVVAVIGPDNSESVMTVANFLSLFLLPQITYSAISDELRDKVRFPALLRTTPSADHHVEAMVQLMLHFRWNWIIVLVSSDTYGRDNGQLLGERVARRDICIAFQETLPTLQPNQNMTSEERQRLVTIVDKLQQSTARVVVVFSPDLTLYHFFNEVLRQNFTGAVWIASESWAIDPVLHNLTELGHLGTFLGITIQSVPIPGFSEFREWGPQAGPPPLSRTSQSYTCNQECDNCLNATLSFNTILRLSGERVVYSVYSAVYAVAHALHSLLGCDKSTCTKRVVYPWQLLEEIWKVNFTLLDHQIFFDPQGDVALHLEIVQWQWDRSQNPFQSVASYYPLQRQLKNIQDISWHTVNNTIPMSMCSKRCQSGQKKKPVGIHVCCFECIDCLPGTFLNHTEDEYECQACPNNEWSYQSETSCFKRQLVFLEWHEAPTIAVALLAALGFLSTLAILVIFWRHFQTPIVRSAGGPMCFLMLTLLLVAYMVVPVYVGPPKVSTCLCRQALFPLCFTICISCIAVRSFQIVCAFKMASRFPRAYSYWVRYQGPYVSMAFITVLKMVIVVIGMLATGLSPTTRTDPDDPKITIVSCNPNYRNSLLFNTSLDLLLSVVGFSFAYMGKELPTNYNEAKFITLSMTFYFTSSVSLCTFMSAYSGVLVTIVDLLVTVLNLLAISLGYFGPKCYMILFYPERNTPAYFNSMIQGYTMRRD
Chain of human sweet receptor (Q7RTX0 21-852 C757R): as the sequence (Q7RTX0 21-852 C757R) above
Chain of hT1R2/hT1R3 (Q8TE23 other isoform, or with tags, fused parts or gaps): as the sequence (Q8TE23 other isoform, or with tags, fused parts or gaps) above
Chain of hT1R2/hT1R3 (Q7RTX0 21-852 C757R): as the sequence (Q7RTX0 21-852 C757R) above
Chain of mT2R5 (Q9JKT4 whole entry): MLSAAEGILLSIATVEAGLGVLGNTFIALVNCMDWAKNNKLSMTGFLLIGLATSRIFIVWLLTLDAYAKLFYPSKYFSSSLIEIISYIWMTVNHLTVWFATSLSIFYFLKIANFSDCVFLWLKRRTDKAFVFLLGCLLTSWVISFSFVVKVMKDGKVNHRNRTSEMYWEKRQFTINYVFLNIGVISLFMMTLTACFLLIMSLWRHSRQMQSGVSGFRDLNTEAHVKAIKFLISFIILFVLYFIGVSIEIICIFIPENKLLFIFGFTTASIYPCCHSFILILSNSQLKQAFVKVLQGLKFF

The EC50 is the concentration needed to bring the measured effect to its halfway point. As to `Cc1cc(C)c(C(=O)NC2CCCCCC2)c(C)c1` [Compound E49, N-cycloheptyl-2,4,6-trimethylbenzamide], on hT1R2/hT1R3, the EC50 was found to be 1.39 µM.

Take `N[C@@H](CCC(=O)O)C(=O)O` [L-glutamate, reference compound]: on T1R1/T1R3 [1] (clone I-17, with and without IMP), the “activation of T1R1/T1R3 receptor by L-amino acids” value is on record as “significantly activated”. Moreover, the results for the “percentage of cells that responded” value at T1R1/T1R3 [1] (induced cells (inducible T1R1/T1R3 expression)) and on T1R1/T1R3 [2] (transiently transfected cells) were “approximately 80%” and “approximately 10%”, respectively. Take `Cc1oncc1C(=O)N[C@@H]1CCCc2ccccc21` [Compound E26, (R)-5-methyl-N-(1,2,3,4-tetrahydronaphthalen-1-yl)isoxazole-4-carboxamide]: at hT1R2/hT1R3, the EC50 was 8.09 µM. As for `CCCC(CCC)NC(=O)c1cc2cc(C)ccc2o1` [Compound A10], the EC50 at T1R1/T1R3 [1] amounted to 0.91 µM. Moreover, the “Ec50 ratio (vs. MSG)” value on T1R1/T1R3 [3] was found to be 4.51. Turning to `N[C@@H](CCC(=O)O)C(=O)O` [glutamate], the “maximal percentage of responding cells” value on T1R1/T1R3 [2] (glutamate alone) was “approximately 5%”; on T1R1/T1R3 [2] (glutamate plus 0.2 mM IMP), “approximately 10%”.

Turning to `C=C1C[C@@]23CC[C@H]4[C@@](C)(CCC[C@@]4(C)C(=O)O[C@@H]4O[C@H](CO)[C@@H](O)[C@H](O)[C@H]4O)[C@@H]2CC[C@]1(O[C@@H]1O[C@H](CO)[C@@H](O)[C@H](O)[C@H]1O[C@@H]1O[C@H](CO)[C@@H](O)[C@H](O)[C@H]1O)C3` [Steviocide, stevioside], the “effect of control sweeteners on activities of T1R1/T1R3 umami taste receptor” value on T1R1/T1R3 [4] is listed as “do not affect”. Regarding `O=C1NS(=O)(=O)c2ccccc21` [saccharin], at T1R1/T1R3 [4], the “effect of other sweeteners on human T1R1/T1R3 activities” value (shortened to “effect of other sweeteners”) was “no effect” and the “effect of control sweeteners on activities of T1R1/T1R3 umami taste receptor” value is “do not affect”. Molecule `CCC[C@@H](NC(=O)c1ccc(OC)c(Cl)c1)C(=O)OC` [Compound A67] returned an EC50 on T1R1/T1R3 [1] of 0.29 µM. At T1R1/T1R3 [3], the “Ec50 ratio (vs. MSG)” value was 10.75. On to `N[C@H](Cc1c[nH]c2ccccc12)C(=O)O` [D-tryptophan], for which the “effect of other sweeteners” value at T1R1/T1R3 [4] is “no effect”. The molecule `CCCC(CC)NC(=O)c1ccc2c(c1)CCO2` (stereo not shown) [Compound A53] gave an EC50 at T1R1/T1R3 [1] of 1.83 µM. With `COc1ccc(OC(C)C(=O)O)cc1` (stereo not shown) [lactisole, Lactisole], the “effect on endogenous muscarinic acetylcholine receptor response” value in experiment [5] was “not inhibited; also recorded: no effect”. The “effect on mouse bitter receptor mT2R5” value on mT2R5 was “no effect”. The “detection thresholds for sweet, umami and salt taste stimuli” value in [6] is “dramatically increased detection thresholds for sweet and umami but not salt taste stimuli”. Consider `CCCC(CCC)NC(=O)c1cccc(C(C)(F)F)c1` [Compound A70], for which, on T1R1/T1R3 [1], a half-maximal effect (EC50) was put at 0.33 µM. In the case of `N[C@H](Cc1c[nH]c2ccccc12)C(=O)O` [D-Trp, D-tryptophan], the EC50 amounted to 370 ± 20 µM on human sweet receptor (0 μM lactisole), 600 µM on human sweet receptor (10 μM lactisole) and 940 ± 80 µM on human sweet receptor (20 μM lactisole). `COC(=O)[C@@H](CC(C)C)NC(=O)c1ccc2nc(C)oc2c1` [Compound A25] had an EC50 on T1R1/T1R3 [1] of 1.48 µM. In the case of `COc1cccc2c1CCCC2NC(=O)c1cc(O)ccc1O` (stereo not shown) [Compound E18, 2,5-dihydroxy-N-(5-methoxy-1,2,3,4-tetrahydronaphthalen-1-yl)benzamide], the EC50 at hT1R2/hT1R3 came out at 3.38 µM. For the molecule `O=S(=O)(O)NC1CCCCC1` [cyclamate], at T1R1/T1R3 [4] (alone), the “effect of compound alone on T1R1/T1R3” value is reported as “no effect”. The “effect on T1R1/T1R3 activity in the presence of L-glutamate” value at T1R1/T1R3 [4] (threshold level of L-glutamate (4 mM)) is on record as “enhanced the activity of the receptor”.

As to `COC(=O)[C@@H](CC(C)C)NC(=O)c1ccc2c(c1)OCO2` [Compound A45], at T1R1/T1R3 [1], the response was half-maximal at 0.88 µM (EC50). Consider `COC(=O)[C@H](Cc1ccccc1)NC(=O)[C@@H](N)CC(=O)O` [aspartame] (H-Asp-Phe-OMe), for which the “effect of other sweeteners” value at T1R1/T1R3 [4] was “no effect”. On to `COC(=O)[C@H]1CCCC[C@H]1NC(=O)c1ccc(OC)c(Cl)c1` [Compound A103], for which the EC50 on T1R1/T1R3 [1] was determined as 1.36 µM. In the case of `OC[C@H]1O[C@@](CO)(O[C@H]2O[C@H](CO)[C@@H](O)[C@H](O)[C@H]2O)[C@@H](O)[C@@H]1O` [sucrose], the “effect of other sweeteners” value on T1R1/T1R3 [4] is “no effect”. Moreover, the EC50 on human sweet receptor (0 μM lactisole) amounted to 19400 ± 900 µM; on human sweet receptor (10 μM lactisole), 24700 ± 1000 µM; at human sweet receptor (20 μM lactisole), 31300 ± 300 µM. `COC(=O)[C@@H](CCSC)NC(=O)c1ccc(OC)c(C)c1` [Compound A86]: the EC50 at T1R1/T1R3 [1] was determined as 0.53 µM. Regarding `COC(=O)C(NC(=O)c1ccc2oc(C)nc2c1)C(C)C(C)C` (stereo not shown) [Compound A28], the EC50 on T1R1/T1R3 [1] came to 1.69 µM.

As to `O=C(CO)[C@@H](O)[C@H](O)[C@H](O)CO` [D-Fructose, D-fructose], the “functional response in FLIPR assay” value in the experiment with HEK293-Gα15 cells is “do not show any functional response”.

The record behind these values is US9459250B2, “Use of T1R3 venus flytrap region polypeptide to screen for taste modulators” (SENOMYX, INC., priority 2003, dated 2016).
